From ChEMBL document CHEMBL4350964, “Discovery of the theobromine derivative MQS-14 that induces death of MGC-803 cells mainly through ROS-mediated mechanisms” (Eur J Med Chem, 2019)
Calls of active or inactive are those of the source. The rule behind the calls is not given here.

Experiments:
MGC-803 [1] = experiment: Induction of apoptosis in human MGC803 cells assessed as early apoptotic cells at 6 uM after 24 hrs by Annexin-V-FITC/propidium iodide staining based flow cytometry (reference value: 6.4%); format: functional
MGC-803 [2] = experiment: Induction of apoptosis in human MGC803 cells assessed as necrotic cells at 9 uM after 24 hrs by Annexin-V-FITC/propidium iodide staining based flow cytometry (reference value: 1.5%); format: functional
MGC-803 [3] = experiment: Induction of apoptosis in human MGC803 cells assessed as viable cells at 9 uM after 24 hrs by Annexin-V-FITC/propidium iodide staining based flow cytometry (reference value: 90.4%); format: functional; conditions: MGC-803, 24 h, read-out: Activity
MGC-803 [4] = experiment: Effect on Cleaved caspase-9 level in human MGC803 cells assessed decrease in cleaved caspase-9 expression at 6 uM after 24 hrs in presence of NAC by Western blot analysis; format: functional, cell-based
MGC-803 [5] = experiment: Induction of DNA damage in human MGC803 cells assessed as formation of DNA long tailing at 6 uM in presence of NAC by comet assay; format: functional, cell-based
MGC-803 [6] = experiment: Effect on Cleaved PARP level in human MGC803 cells assessed decrease in cleaved PARP expression at 6 uM after 24 hrs in presence of NAC by Western blot analysis; format: functional, cell-based
MGC-803 [7] = experiment: Induction of apoptosis in human MGC803 cells assessed as viable cells at 6 uM after 24 hrs by Annexin-V-FITC/propidium iodide staining based flow cytometry (reference value: 90.4%); format: functional; conditions: MGC-803, 24 h, read-out: Activity
GES1 = experiment: Cytotoxicity against human GES-1 cells assessed as reduction in cell viability by MTT assay; format: cell-based
MGC-803 [8] = experiment: Induction of ROS generation in human MGC803 cells after 24 hrs by DCFH-DA dye based flow cytometry; format: functional, cell-based
[9] = Selectivity ratio of IC50 for human GES-1 cells to IC50 for human MGC803 cells; format: toxicity; conditions: GES-1 cells and MGC803 cells, read-out: Ratio IC50
MGC-803 [10] = experiment: Induction of apoptosis in human MGC803 cells assessed as increase in cleaved caspase-9 expression up to 9 uM after 24 hrs by Western blot analysis; format: functional, cell-based
SGC-7901 = experiment: Cytotoxicity against human SGC7901 cells assessed as reduction in cell viability by MTT assay; format: functional, cell-based
MGC-803 [11] = experiment: Induction of DNA damage in human MGC803 cells assessed as formation of DNA long tailing at 6 uM by comet assay; format: functional, cell-based
MGC-803 [12] = experiment: Cytotoxicity against human MGC803 cells assessed as growth inhibition at 20 uM after 48 hrs by MTT assay relative to control; format: functional; conditions: MGC-803, 48 h
Homo sapiens [13] = organism: Homo sapiens; experiment: Activation of MAPK signalling in human MGC803 cells assessed as increase in JNK phosphorylation at 6 uM measured after 24 hrs in presence of NAC by Western blot analysis; format: cell-based
MGC-803 [14] = experiment: Effect on Cleaved caspase-7 level in human MGC803 cells assessed decrease in cleaved caspase-7 expression at 6 uM after 24 hrs in presence of NAC by Western blot analysis; format: functional, cell-based
HGC-27 = experiment: Cytotoxicity against human HGC27 cells assessed as reduction in cell viability by MTT assay; format: functional, cell-based
MGC-803 [15] = experiment: Cytotoxicity against human MGC803 cells assessed as reduction in cell viability at 6 uM after 24 hrs in presence of ROS scavenger N-acetyl-L-cysteine by MTT assay; format: functional, cell-based
MGC-803 [16] = experiment: Induction of apoptosis in human MGC803 cells assessed as early apoptotic cells at 9 uM after 24 hrs by Annexin-V-FITC/propidium iodide staining based flow cytometry (reference value: 6.4%); format: functional
MGC-803 [17] = experiment: Cytotoxicity in human MGC803 cells assessed as cell viability at 6 uM after 24 hrs by MTT assay relative to control; format: functional; conditions: MGC-803, 24 h, read-out: Activity
MGC-803 [18] = experiment: Induction of mitochondrial dysfunction in human MGC803 cells assessed as reduction in mitochondrial potential at 3 to 9 uM after 24 hrs by JC-1 staining based flow cytometry; format: functional, cell-based
MGC-803 [19] = experiment: Induction of apoptosis in human MGC803 cells assessed as increase in cleaved caspase-7 expression up to 9 uM after 24 hrs by Western blot analysis; format: functional, cell-based
Homo sapiens [20] = organism: Homo sapiens; experiment: Activation of MAPK signalling in human MGC803 cells assessed as increase in JNK phosphorylation at 3 to 6 uM after 24 hrs by Western blot analysis; format: cell-based
Homo sapiens [21] = organism: Homo sapiens; experiment: Activation of MAPK signalling in human MGC803 cells assessed as decrease in ERK phosphorylation at 3 to 6 uM after 24 hrs by Western blot analysis; format: cell-based
MGC-803 [22] = experiment: Antiproliferative activity against human MGC803 cells assessed as inhibition of cell proliferation preincubated for 16 hrs followed by Edu addition and measured after 8 hrs by Hoechst 33342 staining-based confocal laser scanning microscopic analysis; format: functional
MGC-803 [23] = experiment: Induction of apoptosis in human MGC803 cells assessed as necrotic cells at 3 uM after 24 hrs by Annexin-V-FITC/propidium iodide staining based flow cytometry (reference value: 1.5%); format: functional
MGC-803 [24] = experiment: Induction of apoptosis in human MGC803 cells assessed as increase in cleaved PARP expression up to 9 uM after 24 hrs by Western blot analysis; format: functional, cell-based
MGC-803 [25] = experiment: Induction of apoptosis in human MGC803 cells assessed as early apoptotic cells at 3 uM after 24 hrs by Annexin-V-FITC/propidium iodide staining based flow cytometry (reference value: 6.4%); format: functional
MGC-803 [26] = experiment: Induction of apoptosis in human MGC803 cells assessed as late apoptotic cells at 3 uM after 24 hrs by Annexin-V-FITC/propidium iodide staining based flow cytometry (reference value: 1.8%); format: functional
Homo sapiens [27] = organism: Homo sapiens; experiment: Activation of MAPK signalling in human MGC803 cells assessed as change in p38 phosphorylation at 3 to 6 uM after 24 hrs by Western blot analysis; format: cell-based
Homo sapiens [28] = organism: Homo sapiens; experiment: Activation of MAPK signalling in human MGC803 cells assessed as decrease in ERK phosphorylation measured after 24 hrs in presence of NAC by Western blot analysis; format: cell-based
MGC-803 [29] = experiment: Induction of apoptosis in human MGC803 cells assessed as viable cells at 3 uM after 24 hrs by Annexin-V-FITC/propidium iodide staining based flow cytometry (reference value: 90.4%); format: functional; conditions: MGC-803, 24 h, read-out: Activity
MGC-803 [30] = experiment: Cytotoxicity against human MGC803 cells assessed as reduction in cell viability by MTT assay; format: functional, cell-based
MGC-803 [31] = experiment: Antiproliferative activity against human MGC803 cells assessed as inhibition of cell division measured after 24 hrs by CFDA-SE staining based flow cytometric analysis; format: functional
MGC-803 [32] = experiment: Induction of apoptosis in human MGC803 cells assessed as late apoptotic cells at 9 uM after 24 hrs by Annexin-V-FITC/propidium iodide staining based flow cytometry (reference value: 1.8%); format: functional
MGC-803 [33] = experiment: Induction of apoptosis in human MGC803 cells assessed as increase in cleaved caspase-3 expression up to 9 uM after 24 hrs by Western blot analysis; format: functional, cell-based
MGC-803 [34] = experiment: Induction of apoptosis in human MGC803 cells assessed as necrotic cells at 6 uM after 24 hrs by Annexin-V-FITC/propidium iodide staining based flow cytometry (reference value: 1.5%); format: functional
MGC-803 [35] = experiment: Cytotoxicity in human MGC803 cells assessed as cell viability at 6 uM pretreated with pan-caspase inhibitor Z-VAD-fmk for 1 hr followed by compound addition and measured after 24 hrs by MTT assay relative to control; format: functional; conditions: read-out: Activity
MGC-803 [36] = experiment: Induction of apoptosis in human MGC803 cells assessed as late apoptotic cells at 6 uM after 24 hrs by Annexin-V-FITC/propidium iodide staining based flow cytometry (reference value: 1.8%); format: functional

CCCn1c(SCc2ccccc2C)nc2c1c(=O)[nH]c(=O)n2C
Activity (MGC-803 [1]): 41.9% | Activity (MGC-803 [2]): 0.9% | viability at 9 µM (MGC-803 [3]): 23.1% | Activity (MGC-803 [4]): Active | Activity (MGC-803 [5]): inactive | Activity (MGC-803 [6]): Active | viability at 6 µM (MGC-803 [7]): 55% | IC50 (GES1): 13 µM | Activity (MGC-803 [8]): Dose-dependent effect | selectivity ratio [9]: 2 to 3 | Activity (MGC-803 [10]): Active | IC50 (SGC-7901): 15 µM | Activity (MGC-803 [11]): Active | inhibition at 20 µM (MGC-803 [12]): 88.6% | Activity (Homo sapiens [13]): inactive | Activity (MGC-803 [14]): Active | IC50 (HGC-27): 9.1 µM | Activity (MGC-803 [15]): inactive | Activity (MGC-803 [16]): 44% | viability at 6 µM (MGC-803 [17]): 66% | Activity (MGC-803 [18]): Dose-dependent effect | Activity (MGC-803 [19]): Active | Activity (Homo sapiens [20]): Active | Activity (Homo sapiens [21]): Dose-dependent effect | inhibition (MGC-803 [22]): Dose-dependent effect | Activity (MGC-803 [23]): 1.5% | Activity (MGC-803 [24]): Active | Activity (MGC-803 [25]): 25.4% | Activity (MGC-803 [26]): 1.7% | Activity (Homo sapiens [27]): Active | Activity (Homo sapiens [28]): inactive | viability at 3 µM (MGC-803 [29]): 71.5% | IC50 (MGC-803 [30]): 6.6 µM | inhibition (MGC-803 [31]): Dose-dependent effect | Activity (MGC-803 [32]): 32% | Activity (MGC-803 [33]): Active | Activity (MGC-803 [34]): 0.7% | viability at 6 µM (MGC-803 [35]): 93% | Activity (MGC-803 [36]): 2.4%

C#CCN1CCN(C(=O)Cn2c(=O)c3c(ncn3C)n(C)c2=O)CC1
inhibition at 20 µM (MGC-803 [12]): 14.1%

C=CC(=O)N1CCN(C(=O)Cn2c(=O)c3c(ncn3C)n(C)c2=O)CC1
inhibition at 20 µM (MGC-803 [12]): 1.3%

Cn1cnc2c1c(=O)n(CC(=O)N1CCN(C(=O)/C=C/c3ccccc3)CC1)c(=O)n2C
inhibition at 20 µM (MGC-803 [12]): 9.5%

Cn1cnc2c1c(=O)n(CC(=O)O)c(=O)n2C
inhibition at 20 µM (MGC-803 [12]): 0.8%

Cn1cnc2c1c(=O)n(CC(=O)N1CCC(N3CCCCC3)CC1)c(=O)n2C
inhibition at 20 µM (MGC-803 [12]): 19.8%

Cn1cnc2c1c(=O)n(CC(=O)N1CCCCC1)c(=O)n2C
inhibition at 20 µM (MGC-803 [12]): 16.8%

O=c1[nH]cc(F)c(=O)[nH]1 [FLUOROURACIL]
IC50 (SGC-7901): 21 µM | IC50 (HGC-27): 18 µM | IC50 (MGC-803 [30]): 14 µM

Cn1cnc2c1c(=O)n(CC(=O)N1CCN(C(=O)OC(C)(C)C)CC1)c(=O)n2C
inhibition at 20 µM (MGC-803 [12]): 20%

Cn1cnc2c1c(=O)n(CC(=O)OC(C)(C)C)c(=O)n2C
inhibition at 20 µM (MGC-803 [12]): 17.2%

CCCn1c(SCc2ccc(C(C)(C)C)cc2)nc2c1c(=O)[nH]c(=O)n2C
inhibition at 20 µM (MGC-803 [12]): 10.3%

CCCn1c(SCc2cccc(OC)c2)nc2c1c(=O)[nH]c(=O)n2C
inhibition at 20 µM (MGC-803 [12]): 34.2%
